Assay results taken from patent US20100240642A1, “1H-Indole-2-Carboxylic Acid Derivatives Useful As PPAR Modulators” (SMITHKLINE BEECHAM CORPORATION, priority 2006, published 2010).

Legend:
hPPARγ receptor = molecular target: T1, hPPARγ receptor (Homo sapiens, UniProt P37231); test: PPARγ Cell-based luciferase assay; conditions: CV-1 cells transfected with GAL4-hPPARγ LBD and UAStkLuc; at concentrations of 10^−6 M or less; read-out: agonism of the hPPARγ receptor (activation relative to full agonist rosiglitazone)
T1 construct: expressed in transfected cells; host or cells: CV-1 (African Green Monkey kidney, ATCC CCL-70)
T1 sequence (P37231 172-475 isoform P37231-2): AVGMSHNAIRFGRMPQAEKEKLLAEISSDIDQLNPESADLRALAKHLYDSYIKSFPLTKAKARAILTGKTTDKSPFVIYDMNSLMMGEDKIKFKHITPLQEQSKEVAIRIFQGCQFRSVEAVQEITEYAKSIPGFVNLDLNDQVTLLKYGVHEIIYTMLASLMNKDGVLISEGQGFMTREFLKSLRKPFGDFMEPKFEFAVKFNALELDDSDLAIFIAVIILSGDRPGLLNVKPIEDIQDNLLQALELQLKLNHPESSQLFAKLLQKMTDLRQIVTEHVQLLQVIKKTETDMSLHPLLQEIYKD
Summary of the method: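 CV-1 cells were transiently transfected with GAL4-DBD/human PPARγ LBD (172-475) and a UAS-tk-firefly luciferase reporter. Cells were plated at 10,000/well in 5% charcoal-stripped FBS medium onto 11-point, 3-fold compound dilutions and incubated overnight at 37 °C. Luminescence was read after Steady-Glo lysis, with activation scored relative to rosiglitazone as full agonist.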

[1] = system: Male Zucker Diabetic Fatty rats; test: In vivo evaluation: serum glucose in Zucker Diabetic Fatty rats; parameters: species or system rat; conditions: 10 mg/kg once daily by oral gavage, 28 days, percent reduction from vehicle control at day 28 relative to normalization (140 mg/dL)
Procedure: Male Zucker Diabetic Fatty rats were lightly anesthetized with isofluorane gas and bleed by tail vein to obtain postprandial baseline concentrations for serum glucose, serum lipids and insulin. Animals were baseline matched by serum glucose and randomized into vehicle or treatment groups with compound administration by oral gavage beginning at 6.5 weeks of age. Selected compounds were administered once daily at 10 mg/kg in 25 mM N-Methyl-Glucamine with 5% w/v Solutol HS15. After 28 consecutive days of treatment, blood samples were obtained and analyzed for serum glucose. Values in Table 1 for % Glucose reduction represent a summary of the percent reduction from vehicle control animals at day 28 relative to normalization defined in this model as serum glucose levels of 140 mg/dL.

SMILES	Emax (hPPARγ receptor) [%]	% Glucose Reduction [1] [%]
COc1cc(Cn2c(C(=O)O)c(-c3ccc(C(C)(C)C)cc3)c3ccccc32)cc(-c2ccc(C(=O)O)cc2)c1 [Example 18, 1-{[4′-carboxy-5-(methyloxy)-3-biphenylyl]methyl}-3-[4-(1,1-dimethylethyl)phenyl]-1H-indole-2-carboxylic acid]	20 to 80	44
CC(C)(C)c1ccc(-c2c(C(=O)O)n(Cc3cccc(-c4ccc(S(C)(=O)=O)cc4)c3)c3ccccc23)cc1 [Example 24, 3-[4-(1,1-dimethylethyl)phenyl]-1-{[4′-(methylsulfonyl)-3-biphenylyl]methyl}-1H-indole-2-carboxylic acid]	20 to 80	79
CC(C)(C)c1ccc(-c2c(C(=O)O)n(Cc3cc(OCCN4CCOCC4)cc(OCC4CC4)c3)c3ccccc23)cc1 [Example 42, 1-[(3-[(cyclopropylmethyl)oxy]-5-{[2-(4-morpholinyl)ethyl]oxy}phenyl)methyl]-3-[4-(1,1-dimethylethyl)phenyl]-1H-indole-2-carboxylic acid]	20 to 80	82
COCCOc1cc(Cn2c(C(=O)O)c(-c3ccc(C(C)(C)C)cc3)c3ccccc32)cc(N2CCOCC2)c1 [Example 68, 3-[4-(1,1-dimethylethyl)phenyl]-1-{[3-{[2-(methyloxy)ethyl]oxy}-5-(4-morpholinyl)phenyl]methyl}-1H-indole-2-carboxylic acid]	20 to 80	95
